We go through 4 molecules from article PMC3747624, “Cloning and Characterization of EF-Tu and EF-Ts from Pseudomonas aeruginosa” (BioMed Research International, 2013).

What is called Km is the concentration of substrate that gives half-maximal velocity.

Read-outs that look alike come from different tables or passages of the source.

Data set [1] addresses T1, P. aeruginosa EF-Tu (Pseudomonas aeruginosa, UniProt P09591).
T1 construct: made in house; host or cells: E. coli Rosetta 2(DE3), pET101/D-TOPO
Briefly: GDP exchange initial velocity assay (nitrocellulose filter binding). The data set is classed as biochemical. Conditions: for Km: EF-Tu 0.64 μM, 37°C, Lineweaver-Burk, read-out: KM for the interaction of EF-Tu with GDP. The procedure: Nitrocellulose filter binding assays were used to determine GDP exchange by EF-Tu as previously described. Assays to determine the initial velocity of GDP exchange were in buffer B (50 mM Tris-HCl, (pH 7.5), 50 mM NH4Cl, and 10 mM MgCl2, 1.0 mM dithiothreitol (DTT)) containing 12 μM [^3H]GDP (500 cpm/pmol). Reactions were incubated at 37°C and were stopped by diluting the reaction mix to 2 mL in buffer B and immediately filtered through nitrocellulose (Whatman; Protran BA 85). Filters were washed three times with 2 mL of buffer B and allowed to dry, and the amount of EF-Tu·[^3H]GDP complex retained was determined by scintillation counting (Beckman Coulter LS 6500). Initial velocity reactions were from 1 to 4 min, and GDP concentrations were varied as indicated.
Historically, the GDP exchange assay has been used to determine the activity of EF-Tu. […] The kinetic parameters KM and Vmax for the interaction of P. aeruginosa EF-Tu with GDP were determined by inserting the initial velocity data into Lineweaver-Burk plots (Figure 4(b)).

The target in data set [2] is Leu-tRNA^Leu and GTP (Pseudomonas aeruginosa, UniProt P09591). Conditions: 1.2 μM [3H]Leu-tRNA^Leu, 0.5 mM GTP, 15 min 4°C, RNase A.
Procedure: Ternary complex formation was assayed by examining the ability of EF-Tu to protect [^3H]Leu-tRNA^Leu ) from digestion by RNase A [21, 22]. EF-Tu (0, 0.6, 0.9, 1.2, 1.5, 1.8, 2.1, and 2.4 μM) was incubated in reaction mixtures (50 μL) containing 1.2 μM [^3H]Leu-tRNA^Leu, 0.5 mM GTP, 50 mM Tris-HCl, (pH 7.5), 1 mM DTT, 50 mM NH4Cl, and 6.5 mM MgCl2 for 15 min at 4°C. RNAase A was then added to a final concentration of 0.02 mg/mL and incubated for an additional 20 s. The reactions were stopped by the addition of 3 mL of ice-cold 5% trichloroacetic acid (TCA) and filtered through nitrocellulose filters (Whatman). Retention of [^3H]Leu signified EF-Tu protection of [^3H]Leu-tRNA^Leu from nuclease digestion [22].
To determine the ability of P. aeruginosa EF-Tu to form a ternary complex with Leu-tRNA^Leu and GTP, the nuclease protection assay was used [19, 22]. The nuclease protection assay measures the formation of a ternary complex by the ability of EF-Tu to protect the 3′ end of the tRNA with the covalently attached [^3H]Leu from digestion by RNase A [45]. […] Reactions contained enough RNase A to hydrolyze over 90% of the leucine away from tRNA^Leu .
Data set [3] relates to P. aeruginosa ribosomes. Put plainly: Poly(U)-dependent binding of Phe-tRNA^Phe ternary complex to the ribosomal A-site. It counts as biochemical, Pseudomonas aeruginosa. Conditions: 3.2 μM EF-Tu, 1 μM ribosomes, GDPNP. The procedure: To determine ternary complex binding to the ribosome, a mixture containing 50 mM Tris-HCl, (pH 7.5), 0.1 mM spermine, 40 mM KCl, 4 mM MgCl2, 1.0 mM DTT, 0.3 mM GTP or guanosine 5′-[β,γ-imido]triphosphate (GDPNP), 0.15 mg/mL poly(U) mRNA, 0.06 μM P. aeruginosa EF-Ts, 3.2 μM EF-Tu, 1.0 μM P. aeruginosa ribosomes, and 0.75 μM [^3H]Phe-tRNA^Phe (25 cpm/pmol) was used. The concentration of EF-Tu was varied from 0.32 to 1.6 μM as indicated. All components were preincubated at 37°C for 15 min in the absence of ribosomes to allow ternary complex formation. Ribosomes were then added, and incubation was continued for an additional 15 min at the same temperature. The amounts of [^3H]Phe-tRNA^Phe bound to the ribosome, representing ternary complex, were analyzed using glass microfiber filter (Whatman) binding as previously described. Control reactions lacked either EF-Tu or ribosomes.
Aminoacylated tRNA is bound at the ribosomal A-site in a ternary complex. The amount of aminoacylated tRNAs that can be bound to the A-site of the ribosome in a ternary complex was measured using [^3H]Phe-tRNA^Phe in poly(U)-dependent assays. In the absence of poly(U), a basal level of ternary complex will bind to the ribosome. In these assays, GTP was replaced with the nonhydrolyzable analog GDPNP to prevent hydrolysis of the nucleotide and dissociation of EF-Tu. […]

Data set [4] has as its target T1, P. aeruginosa EF-Tu. Briefly: Equilibrium dissociation constants of EF-Tu·GDP and EF-Tu·GTP complexes (dilution, nitrocellulose filter binding). The procedure: Reactions were carried out to determine the equilibrium dissociation constants (K GDP and K GTP) for the interaction of P. aeruginosa EF-Tu with GDP and GTP. The reaction was carried out in buffer B containing 1.3 μM total P. aeruginosa EF-Tu and 12 μM [^3H]GDP (500 cpm/pmol) or [^3H]GTP (750 cpm/pmol). EF-Ts was added to 0.05 μM as indicated. To form EF-Tu·nucleotide complexes, the reactions were incubated for 2 h at 0°C. To determine the total amount of complex formed (defined as active amounts of EF-Tu), reactions were immediately filtered through nitrocellulose filters following incubation. Reactions to determine K GDP and K GTP were diluted by the addition of 5 mL of buffer B that had been preincubated at 37°C, 23°C, or 0°C. Incubation was continued at those temperatures after dilution for 10, 20, and 30 min, respectively. Remaining amounts of the complexes were determined by filtration through nitrocellulose filters.
The percentage of EF-Tu capable of exchanging GDP (active EF-Tu) was determined from assays described in Section 3.6 which measured the total EF-Tu·[^3H]GDP complexes formed. In these assays, saturating amounts of [^3H]GDP (12 μM) were incubated with EF-Tu on ice for 2 h, and the total labeled EF-Tu·[^3H]GDP complex was determined using nitrocellulose filter binding, which retained the complex but not free GDP. The maximum amount of EF-Tu·GDP complex observed would be equivalent to the concentration of EF-Tu capable of exchanging GDP. Approximately 50% of EF-Tu was capable of forming an EF-Tu·[^3H]GDP complex. In the subsequent experiments containing EF-Tu, the results were based on the concentration of active EF-Tu.
The equilibrium dissociation constants for the EF-Tu·GDP (K GDP) and EF-Tu·GTP (K GTP) complexes were calculated from measurements of the extent of dissociation of the complexes in dilute solutions. Both complexes were formed by incubation at […] for 2 h in 50 μL reactions (Section 3.3). […] To determine dissociation, the 50 μL reactions were diluted by addition of 5 mL of reaction mix (minus enzyme and nucleotide) that had been preincubated to 37°C, 23°C, or 0°C, and incubation was continued at these temperatures for 10, 20, and 30 min, respectively. These were the conditions used to determine the K GDP for interaction of E. coli EF-Tu with GDP, and we maintained the same conditions in the determination of the K GTP.
The concentration of complex immediately after dilution was approximately 6.0 × 10^−3 μM. After incubation, the remaining EF-Tu·GDP complex was determined. Total GDP was calculated as the amount of added [^3H]GDP plus GDP that had copurified with EF-Tu. Free GDP was the amount of total GDP minus complexes formed, and free EF-Tu was the amount of initial complex minus remaining complex. The equilibrium dissociation constants for the complexes were calculated using the following equation: (1) KGD/TP=[EF−Tufree][GD/TPfree]/[EF−Tu·GD/TP]. We observed KGDP values for EF-Tu that ranged from 30 to 75 nM in the absence of EF-Ts at the temperatures in which the EF-Tu·GDP complex was allowed to dissociate (Table 2). Previous studies to determine the KGDP governing the binding of GDP to EF-Tu in the E. coli system included EF-Ts in the assays, and therefore we also carried out assays to determine the KGDP in the presence of EF-Ts. There was no statistical change of the KGDP observed in the presence of EF-Ts (30 to 40 nM). These values are within 3-fold of that seen in the E. coli system in which the equilibrium dissociation constant (5 to 10 nM) was determined in the presence of EF-Ts.

Data set [5] concerns E. coli EF-Tu. Conditions: cited from earlier work.
Data set [6] has as its target Pseudomonas aeruginosa elongation factor Tu (Pseudomonas aeruginosa PAO1) (UniProt P09591).

T1 sequence (P09591 whole entry): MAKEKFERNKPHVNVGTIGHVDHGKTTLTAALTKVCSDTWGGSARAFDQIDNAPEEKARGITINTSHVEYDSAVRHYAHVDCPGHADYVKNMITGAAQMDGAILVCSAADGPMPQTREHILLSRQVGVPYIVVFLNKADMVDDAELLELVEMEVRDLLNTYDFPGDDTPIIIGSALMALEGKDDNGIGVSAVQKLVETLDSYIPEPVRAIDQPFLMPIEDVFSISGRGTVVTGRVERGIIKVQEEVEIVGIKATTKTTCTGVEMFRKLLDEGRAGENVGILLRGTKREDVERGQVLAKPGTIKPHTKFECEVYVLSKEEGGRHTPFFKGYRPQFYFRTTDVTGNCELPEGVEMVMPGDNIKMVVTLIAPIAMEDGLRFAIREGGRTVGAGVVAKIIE
Pseudomonas aeruginosa elongation factor Tu (Pseudomonas aeruginosa PAO1), sequence (P09591 whole entry): as above
Leu-tRNA^Leu and GTP, sequence (P09591 whole entry): as above

As to “EF-Tu: recombinant elongation factor Tu from Pseudomonas aeruginosa, cloned, expressed and purified”, the “specific activity for the exchange of GDP by EF-Tu” value in data set [1] (absence of EF-Ts) worked out at 0.0047 µmol/min/mg. In addition, in data set [2], the “EF-Tu active in ternary complex formation” value is recorded as “Up to 20%”. Besides, in data set [3] (15 min), the “share of the ternary complex formed that bound to the ribosome” value is on record as “approximately 90%”. Further, in data set [3] (within 15 min, 37°C), the “ribosomes with ternary complex bound to the A-site” value was “approximately 50%”. In addition, in data set [4] (12 μM [3H]GDP, on ice 2 h), the “EF-Tu capable of forming an EF-Tu·[3H]GDP complex (active EF-Tu)” value is on record as “Approximately 50%”. For the same molecule, the “EF-Tu forming a complex with each form of the nucleotide (GDP, GTP)” value in data set [4] (incubation 2 h in 50 μL reactions) is on record as “approximately 50%”.
`Nc1nc2c(ncn2[C@@H]2O[C@H](COP(=O)(O)OP(=O)(O)OP(=O)(O)O)[C@@H](O)[C@H]2O)c(=O)[nH]1` [GTP]: the Kd in data set [4] (EF-Ts 0, 0°C, read-out: K GTP) stood at 150 nM; in data set [4] (EF-Ts 0, 23°C, read-out: K GTP), 123 nM; in data set [4] (EF-Ts 0, 37°C, read-out: K GTP) it was 175 nM; in data set [4] (EF-Ts 0.5 ×10^−3 μM, 0°C, read-out: K GTP) it was 156 nM; in data set [4] (EF-Ts 0.5 ×10^−3 μM, 23°C, read-out: K GTP), 125 nM; in data set [4] (EF-Ts 0.5 ×10^−3 μM, 37°C, read-out: K GTP) it was 190 nM. For the same molecule, the “binding of GTP weaker than binding of GDP (KGTP vs KGDP)” value in data set [4] (P. aeruginosa EF-Tu) was “up to 6 fold”.
Take `Nc1nc2c(ncn2[C@@H]2O[C@H](COP(=O)(O)OP(=O)(O)O)[C@@H](O)[C@H]2O)c(=O)[nH]1` [GDP]: the “kcat obs for exchange of GDP by EF-Tu” value in data set [1] (absence of EF-Ts) came to 0.003 s⁻¹; in data set [1] (presence of EF-Ts 0.01 μM), 0.005 s⁻¹. The Km in data set [1] (absence of EF-Ts) was 33 µM; in data set [1] (presence of EF-Ts 0.01 μM), 2 µM. In data set [5], the “GDP bound more tightly than GTP” value is “up to 100 fold”. The Kd was 58 nM in data set [4] (EF-Ts 0, 0°C, read-out: K GDP); 38 nM in data set [4] (EF-Ts 0, 23°C, read-out: K GDP); 72 nM in data set [4] (EF-Ts 0, 37°C, read-out: K GDP); 43 nM in data set [4] (EF-Ts 0.5 ×10^−3 μM, 0°C, read-out: K GDP); 30 nM in data set [4] (EF-Ts 0.5 ×10^−3 μM, 23°C, read-out: K GDP); 34 nM in data set [4] (EF-Ts 0.5 ×10^−3 μM, 37°C, read-out: K GDP).

B1: Pseudomonas aeruginosa elongation factor Ts (natural protein)
chain: AEITAAMVKELRERTGLGMMECKKALTAAGGDIEKAIDDMRAAGAIKAAKKAGNIAAEGSIAVKIAADNKAAVIIEVNSQTDFLALQDDFKGFVAESLEKAFNEKLTDAAPLVEAREEARLALVAKTGENVNIRRLTRVEGDVVGAYLHGHRIGVVVNLKGGNPELAKDIAMHVAASNPQFLSASEVSEEAIAKEKEIFLALNADKIAGKPENIVENMVKGRISKFLAEASLVEQPFVKNPEVKVGDLAKQAGAEIVSFVRYEVGEGIEKAEVDFAAEVAAQVAATKQ
Molecule B1 had a [3H]GDP exchange by EF-Tu (0.64 uM, 1 uM GDP) with 0.05 uM EF-Ts against without EF-Ts, nitrocellulose filter binding, 15 to 120 s, 37°C in data set [6] of 7 to 8 fold.
